In PubChem BioAssay (NCI):
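In this assay, cells in 96-well plates receive the compound at five concentrations for 48 hours. Endpoints are linearly interpolated between the surrounding concentrations. TGI marks complete inhibition of growth.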

Tests used:
Assay in all cases: inhibition of tumour cell growth, NCI panel, 48 h
[1] = tested on: NCI-H23 lung
[2] = tested on: OVCAR-5 ovarian
[3] = tested on: OVCAR-8 ovarian
[4] = tested on: DLD-1 colon
[5] = tested on: SK-MEL-28 melanoma
[6] = tested on: XF 498 CNS
[7] = tested on: HCT-116 colon
[8] = tested on: CAKI-1 renal
[9] = tested on: SN12C renal
[10] = tested on: UACC-62 melanoma
[11] = tested on: SNB-75 CNS
[12] = tested on: U251 CNS
[13] = tested on: COLO 205 colon
[14] = tested on: NCI-H522 lung
[15] = tested on: DMS 114 small cell lung
[16] = tested on: A549 NSCLC
[17] = tested on: NCI-H460 lung
[18] = tested on: IGROV1 ovarian
[19] = tested on: M19-MEL melanoma
[20] = tested on: SF-268 CNS
[21] = tested on: K-562 leukemia
[22] = tested on: UACC-257 melanoma
[23] = tested on: HCC-2998 colon
[24] = tested on: SK-MEL-5 melanoma
[25] = tested on: SNB-19 CNS
[26] = tested on: OVCAR-4 ovarian
[27] = tested on: HL-60(TB) leukemia
[28] = tested on: 786-0 renal
[29] = tested on: DMS 273 small cell lung
[30] = tested on: RPMI-8226 leukemia
[31] = tested on: SK-OV-3 ovarian
[32] = tested on: UO-31 renal
[33] = tested on: SF-295 CNS
[34] = tested on: CCRF-CEM leukemia
[35] = tested on: HOP-62 NSCLC
[36] = tested on: TK-10 renal
[37] = tested on: ACHN renal
[38] = tested on: HOP-92 NSCLC
[39] = tested on: A498 renal
[40] = tested on: LXFL 529 NSCLC
[41] = tested on: LOX IMVI melanoma
[42] = tested on: M14 melanoma
[43] = tested on: SNB-78 CNS
[44] = tested on: KM12 colon
[45] = tested on: NCI-H226 lung
[46] = tested on: HOP-18 NSCLC
[47] = tested on: SW-620 colon
[48] = tested on: RXF 393 renal
[49] = tested on: OVCAR-3 ovarian
[50] = tested on: KM20L2 colon
[51] = tested on: MALME-3M melanoma
[52] = tested on: HT29 colon
[53] = tested on: SF-539 CNS
[54] = tested on: MOLT-4 leukemia
[55] = tested on: HCT-15 colon
[56] = tested on: EKVX NSCLC

CC1=Nc2ccccc2SC(c2c(Cl)cccc2Cl)C1 (stereo unspecified)
TGI [1]: 2.64 µM
TGI [2]: 4.08 µM
TGI [3]: 0.588 µM
TGI [4]: 1.42 µM
TGI [5]: 2.69 µM
TGI [6]: 3.21 µM
TGI [7]: 0.616 µM
TGI [8]: 5.3 µM
TGI [9]: 2.7 µM
TGI [10]: 2.52 µM
TGI [11]: 5.67 µM
TGI [12]: 1.14 µM
TGI [13]: 3.12 µM
TGI [14]: 2.23 µM
TGI [15]: 3.19 µM
TGI [16]: 4.43 µM
TGI [17]: 3.26 µM
TGI [18]: 3.31 µM
TGI [19]: 2.44 µM
TGI [20]: 2.73 µM
TGI [21]: 1.71 µM
TGI [22]: 3.3 µM
TGI [23]: 3.18 µM
TGI [24]: 3.06 µM
TGI [25]: 2.7 µM
TGI [26]: 4.56 µM
TGI [27]: 1.12 µM
TGI [28]: 1.49 µM
TGI [29]: 2.19 µM
TGI [30]: 3.09 µM
TGI [31]: 6.44 µM
TGI [32]: 3.09 µM
TGI [33]: 2.79 µM
TGI [34]: 2.26 µM
TGI [35]: 3.76 µM
TGI [36]: 3.89 µM
TGI [37]: 3.19 µM
TGI [38]: 3.62 µM
TGI [39]: 3.74 µM
TGI [40]: 1.69 µM
TGI [41]: 1.04 µM
TGI [42]: 3.07 µM
TGI [43]: 23.8 µM
TGI [44]: 2.15 µM
TGI [45]: 3.05 µM
TGI [46]: 11.1 µM
TGI [47]: 1.34 µM
TGI [48]: 2.69 µM
TGI [49]: 0.885 µM
TGI [50]: 2.98 µM
TGI [51]: 3.29 µM
TGI [52]: 1.57 µM
TGI [53]: 2.72 µM
TGI [54]: 12.4 µM
TGI [55]: 2.57 µM
TGI [56]: 3.82 µM
